pIC50: −log10 of the molar value.
Target: T1, human V2 vasopressin receptor subtype (Homo sapiens, UniProt P30518)
T1 construct: host or cells: CHO cells, stably transfected (pZeoSV vector); membranes
Assay: Vasopressin binding in CHO cell membranes expressing human vasopressin V2 subtype receptors ([3H]arginine vasopressin)
Conditions: for pIC50: value in parentheses; for inhibition at 0.1 µM / V2 % inhibition @ 100 nM: 100 nM, value without parentheses
Description: Vasopressin Binding in Chinese Hamster Ovary Cell Membranes Expressing Human Vasopressin V2 Subtype Receptors
Chinese Hamster Ovary (CHO) cells stably transfected with the human V2 subtype receptors were obtained from M. Thibonnier, Case Western Reserve University School of Medicine, Cleveland, Ohio.
A. Passaging and Amplification of Cells:
CHO cells transfected with the human vasopressin V2 subtype receptors obtained from M. Thibonnier (pZeoSV vector) are allowed to grow to confluency (approx. >90%) in T-150 flasks under sterile conditions, in a cell culture medium of F-12 Nutrient Mixture (HAM) with L-glutamine (Gibco Cat. #11765-054) containing 15 mM HEPES (Gibco Cat. #15630-080), 1% antibiotic/antimycotic (add 5 mL 100×, Gibco Cat. #15240-062 per 500 mL F-12), 250 μg/mL Zeocin (add 1.25 mL of 100 mg/mL Invitrogen R-250-01 per 500 mL F-12) and 10% Fetal Bovine Serum (Qualified, heat inactivated, Gibco Cat. #16140-063). The medium is removed by aspiration and the cells washed with 10 mL of Hank's Balanced Salt solution (Gibco Cat. #14175-095). The salt solution is removed by aspiration and the cells trypsinized with 5 mL of trypsin-EDTA (0.05% trypsin, 0.53 mM EDTA-4Na, Gibco Cat. #25300-070) for 1 min. The trypsin is removed by aspiration and the cells dislodged by tapping. Cell Culture medium (e.g. 30 mL for 1:30 split) is immediately added and mixed well to inactivate trypsin. 1 mL of detached cells is added to new culture flasks containing fresh Cell Culture medium (e.g. into 25 mL per T-150 flask), and mixed gently. The cells are incubated at 37° C. in 5% CO2. The medium is changed at 3 to 4 day interval (or as appropriate). The cells grow to confluency (approx. >75%-95%) within 7-8 days. All steps are done under sterile conditions.
The cells are washed twice gently with Hank's Balanced Salt solution (e.g. use 10 mL per T-150 flask). The excess solution is removed and the cells bathed for 15-30 min. in an enzyme-free Cell Dissociation Buffer (e.g. use 8 mL Hank's Based, Gibco Cat. #13150-016 per T-150 flask) until cells are loosened. The contents are transferred to centrifuge tubes (50 mL size) kept in ice bath. All subsequent steps are done at 4° C. The tubes are centrifuged at 300×g for 15 min (1380 rpm on SORVAL, Model RT6000D, using rotor for 50 mL tubes). The supernatant is discarded and the cells suspended in homogeneizing buffer(10 mM Tris-HCl containing 0.25 M sucrose and 1 mM EDTA, pH 7.4) ensuring that the volume of the buffer is about ten times the volume of the cell pellet. The cells are pooled into a centrifuge tube (50 mL) and homogenized with Polytron at setting 6 for 10 sec. The homogenate is transferred into a Potter-Elvjehm homogeneizer and homogenized with 3 strokes. The homogenate is centrifuged at 1500×g for 60 min at 4° C. (3100 rpm using SORVAL, model RT6000D, using rotor for 50 mL tubes). The pellet is discarded. The supernatant is centrifuged at 100,000×g for 60 min. at 4° C. (Beckman L8-80M ultracentrifuge; spin at 37,500 rpm with rotor type 70 Ti for 50 mL tubes; 38,000 rpm with type 80Ti for 15 mL tubes; or 35,800 rpm with rotor type 45Ti). The supernantant is discarded and the pellet suspended in 3 to 4 mL of Tris buffer (50 mM TRIS-HCl, pH 7.4). The protein content is estimated by the Bradford or Lowry method. The volume of the membrane suspension is adjusted with the membrane buffer (50 mM Tris-HCl containing 0.1% BSA and 0.1 mM PMSF) to give 3.0 mg/mL (or as appropriate) of protein. The membranes are aliquoted and stored at −70° C.
C. Radioligand Binding Assay:
In wells of a 96-well format microtiter plate, is added 90, 110 or 130 μL (to make up a final volume of 200 μL) of assay buffer containing 50 mM of Tris-HCl (pH 7.4), […], 1 mg % aprotinin, 1 mg % leupeptin, 2 mg % 1,10-phenanthroline, 10 mg % trypsin inhibitor, and 0.1 mM PMSF. The inhibitors are added on the day of the experiment. […]

T1 sequence (P30518 whole entry): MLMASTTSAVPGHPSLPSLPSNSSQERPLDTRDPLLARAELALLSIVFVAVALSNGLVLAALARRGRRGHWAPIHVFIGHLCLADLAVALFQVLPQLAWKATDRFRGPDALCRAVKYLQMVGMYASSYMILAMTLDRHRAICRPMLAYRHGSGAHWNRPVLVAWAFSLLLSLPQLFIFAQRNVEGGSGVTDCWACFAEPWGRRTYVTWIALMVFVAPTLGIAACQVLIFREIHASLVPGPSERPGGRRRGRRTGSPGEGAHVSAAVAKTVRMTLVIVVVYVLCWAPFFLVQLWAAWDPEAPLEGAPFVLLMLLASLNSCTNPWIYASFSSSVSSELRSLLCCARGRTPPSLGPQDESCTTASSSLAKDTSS

Compound	pIC50	inhibition at 0.1 µM [%]	other results
COc1cc(C2=CCCCC2)c(Cl)cc1C(=O)N1Cc2ccc(C(=O)N(C)C[C@H](O)[C@@H](O)[C@H](O)[C@H](O)CO)n2Cc2ccccc21 [Example 1, 1-[[[10-[5-Chloro-4-(1-cyclohex-1-en-1-yl)-2-methoxybenzoyl]-10,11-dihydro-5H-pyrrolo[2,1-c][1,4]benzodiazepin-3-yl]carbonyl]methylamino]-1-deoxy-D-glucitol]	5.81	–	–
COc1cc(C2=CCCCC2)c(Cl)cc1C(=O)N1Cc2ccc(C(=O)O)n2Cc2ccccc21 [Example 1G, 10-(5-Chloro-4-cyclohex-1-en-1-yl-2-methoxybenzoyl)-10,11-dihydro-5H-pyrrolo[2,1-c][1,4]benzodiazepine-3-carboxylic acid]	–	4	–
COC[C@@H](OC)[C@@H](OC)[C@H](OC)[C@H](CN(C)C(=O)c1ccc2n1Cc1ccccc1N(C(=O)c1cc(Cl)c(C3=CCCCC3)cc1OC)C2)OC [Example 2, 10-(5-Chloro-4-cyclohex-1-en-1-yl-2-methoxybenzoyl)-N-methyl-N-[(2S,3R,4R,5R)-2,3,4,5,6-pentamethoxyhexyl]-10,11-dihydro-5H-pyrrolo[2,1-c][1,4]benzodiazepine-3-carboxamide]	5.34	–	–
COc1cc(C2=CCCCC2)c(Cl)cc1C(=O)N1Cc2ccc(C(=O)N(C)C[C@@H]3OC(=O)O[C@H]3[C@H](O)[C@H]3COC(=O)O3)n2Cc2ccccc21 [Example 3, 10-(5-Chloro-4-cyclohex-1-en-1-yl-2-methoxybenzoyl)-N-[((4S,5S)-5-{(R)-hydroxy[(4R)-2-oxo-1,3-dioxolan-4-yl]methyl}-2-oxo-1,3-dioxolan-4-yl)methyl]-N-methyl-10,11-dihydro-5H-pyrrolo[2,1-c][1,4]benzodiazepine-3-carboxamide]	5.58	–	–
COc1cc(C2=CCCCC2)c(Cl)cc1C(=O)N1Cc2ccc(C(=O)N(C)CC(O)CO)n2Cc2ccccc21 (stereo not shown) [Example 4, 10-(5-Chloro-4-cyclohex-1-en-1-yl-2-methoxybenzoyl)-N-(2,3-dihydroxypropyl)-N-methyl-10,11-dihydro-5H-pyrrolo[2,1-c][1,4]benzodiazepine-3-carboxamide]	5.83	–	–
Cc1cc(C(=O)N2Cc3ccc(C(=O)C(Cl)(Cl)Cl)n3Cc3ccccc32)ccc1C1=CCCCC1 [Example 5D, 2,2,2-Trichloro-1-[10-(4-cyclohex-1-en-1-yl-3-methyl-benzoyl)-10,11-dihydro-5H-pyrrolo[2,1-c][1,4]benzodiazepin-3-yl]-methanone]	–	–	V2 % inhibition @ 100 nM: 1%
Cc1cc(C(=O)N2Cc3ccc(C(=O)O)n3Cc3ccccc32)ccc1C1=CCCCC1 [Example 5E, 10-(4-Cyclohex-1-en-1-yl-3-methyl-benzoyl)-10,11-dihydro-5H-pyrrolo[2,1-c][1,4]benzodiazepine-3-carboxylic acid]	–	15	–
Cc1cc(C(=O)N2Cc3ccc(C(=O)N(C)C[C@H](O)[C@@H](O)[C@H](O)[C@H](O)CO)n3Cc3ccccc32)ccc1C1=CCCCC1 [Example 5]	5.68	–	–
Cc1cc(C(=O)N2Cc3ccc(C(=O)N(C)C[C@H](O)[C@H]4OC(=O)O[C@@H]4[C@H](O)CO)n3Cc3ccccc32)ccc1C1=CCCCC1 [Example 6, 10-(4-Cyclohex-1-en-1-yl-3-methylbenzoyl)-N-((2S)-2-{(4R,5R)-5-[(1R)-1,2-dihydroxyethyl]-2-oxo-1,3-dioxolan-4-yl}-2-hydroxyethyl)-N-methyl-10,11-dihydro-5H-pyrrolo[2,1-c][1,4]benzodiazepine-3-carboxamide]	6.25	–	–
Cc1cc(C(=O)N2Cc3ccc(C(=O)N(C)C[C@@H]4OC(=O)O[C@H]4[C@H](O)[C@H]4COC(=O)O4)n3Cc3ccccc32)ccc1C1=CCCCC1 [Example 7, 10-(4-Cyclohex-1-en-1-yl-3-methylbenzoyl)-N-[((4S,5S)-5-{(R)-hydroxy[(4R)-2-oxo-1,3-dioxolan-4-yl]methyl}-2-oxo-1,3-dioxolan-4-yl)methyl]-N-methyl-10,11-dihydro-5H-pyrrolo[2,1-c][1,4]benzodiazepine-3-carboxamide]	–	14	–
COC[C@@H](OC)[C@@H](OC)[C@H](OC)[C@H](CN(C)C(=O)c1ccc2n1Cc1ccccc1N(C(=O)c1ccc(C3=CCCCC3)c(C)c1)C2)OC [Example 8, 10-(4-Cyclohex-1-en-1-yl-3-methylbenzoyl)-N-methyl-N-[(2S,3R,4R,5R)-2,3,4,5,6-pentamethoxyhexyl]-10,11-dihydro-5H-pyrrolo[2,1-c][1,4]benzodiazepine-3-carboxamide]	< 5.52	–	–
CCOC(=O)[C@H](Cc1ccc(O)cc1)NC(=O)c1ccc2n1Cc1ccccc1N(C(=O)c1ccc(C3=CCCCC3)c(C)c1)C2 [Example 9, (2S)-2-{[10-(4-Cyclohex-1-en-1-yl-3-methyl-benzoyl)-10,11-dihydro-5H-pyrrolo[2,1-c][1,4]benzodiazepine-3-carbonyl]-amino}-3-(4-hydroxy-phenyl)-propionic acid ethyl ester]	–	11	–
Cc1cc(C(=O)N2Cc3ccc(C(=O)N[C@@H](Cc4ccc(O)cc4)C(=O)O)n3Cc3ccccc32)ccc1C1=CCCCC1 [Example 10]	–	–	V2 % inhibition @ 100 nM: 15%
COC(=O)[C@H](CO)NC(=O)c1ccc2n1Cc1ccccc1N(C(=O)c1ccc(C3=CCCCC3)c(C)c1)C2 [Example 11, (2S)-2-{[10-(4-Cyclohex-1-en-1-yl-3-methyl-benzoyl)-10,11-dihydro-5H-pyrrolo[2,1-c][1,4]benzodiazepine-3-carbonyl]-amino}-3-hydroxy-propionic acid methyl ester]	–	10	–
COC(=O)[C@@H](CO)NC(=O)c1ccc2n1Cc1ccccc1N(C(=O)c1ccc(C3=CCCCC3)c(C)c1)C2 [Example 12, (2R)-2-{[10-(4-Cyclohex-1-en-1-yl-3-methyl-benzoyl)-10,11-dihydro-5H-pyrrolo[2,1-c][1,4]benzodiazepine-3-carbonyl]-amino}-3-hydroxy-propionic acid methyl ester]	–	9	–
Cc1cc(C(=O)N2Cc3ccc(C(=O)N[C@@H](CO)C(=O)O)n3Cc3ccccc32)ccc1C1=CCCCC1 [Example 13, (2S)-2-{[10-(4-Cyclohex-1-en-1-yl-3-methyl-benzoyl)-10,11-dihydro-5H-pyrrolo[2,1-c][1,4]benzodiazepine-3-carbonyl]-amino}-3-hydroxy-propionic acid]	–	9	–
Cc1cc(C(=O)N2Cc3ccc(C(=O)N[C@H](CO)C(=O)O)n3Cc3ccccc32)ccc1C1=CCCCC1 [Example 14, (2R)-2-{[10-(4-Cyclohex-1-en-1-yl-3-methyl-benzoyl)-10,11-dihydro-5H-pyrrolo[2,1-c][1,4]benzodiazepine-3-carbonyl]-amino}-3-hydroxy-propionic acid]	–	11	–
Cc1cc(C(=O)N2Cc3ccc(C(=O)O)n3Cc3ccccc32)ccc1C1=CCCc2ccccc21 [Example 15B, 10-[4-(3,4-Dihydro-naphthalen-1-yl)-3-methyl-benzoyl]-10,11-dihydro-5H-pyrrolo[2,1-c][1,4]benzodiazepine-3-carboxylic acid]	–	40	–
Cc1cc(C(=O)N2Cc3ccc(C(=O)N(C)C[C@H](O)[C@@H](O)[C@H](O)[C@H](O)CO)n3Cc3ccccc32)ccc1C1=CCCc2ccccc21 [Example 15]	6.92	–	–

Source: US6977254B2, “Hydroxy cyclohexenyl phenyl carboxamides tocolytic oxytocin receptor antagonists” (Wyeth, priority 2001, dated 2005)
